Reference: patent US10544106B2, “Certain chemical entities, compositions, and methods” (NeuPharma, Inc., priority 2016, dated 2020)

Tests used:
OCI-Ly10 cells = experiment: OCI-Ly10 cell proliferation assay (Alamar Blue, 72 hours); assay type: cell-based; settings: Homo sapiens
Description: OCI-Ly10 cells were cultured in Iscove's DMEM supplemented with 20% fetal bovine serum and 1× penicillin/streptomycin/glutamine. The cells were maintained in T175 flasks under 5% CO2 in a 37 ° C. humidified incubator for 5 days prior to plating and assay.
Cells were pooled by centrifugation (200 ref, 8 minutes) and resuspended in fresh medium to a concentration of 2.00E+05 cells/ml. 200 µl of the cell suspension was added to each well (40,000 cells/well) of a black-walled 96 well plate to which 1 μl of compound (n=3 per concentration) in 100% DMSO (0.5% final concentration) was added per well. Vehicle and cell free wells were also included in the assay. The dosed cells were cultured under normal conditions for 72 hours.
Cell proliferation is measured using the dye Alamar Blue (resazurin). Resazurin is reduced to resorufin by cellular enzymes and is fluorescent (544 nm excitation, 612 nm emission). Fluorescence intensity is proportional to cell number. Resazurin was prepared in PBS to a stock concentration of 440 μM. 40 μl of the 440 μM resazurin stock solution was added 3 hours prior to the 72 hour termination of the assay. The plate was returned to normal culture conditions and fluorescence measurements were collected using a Cytation3 multimode plate reader (Biotek) at 72 hours.
The scale utilized in Table 8 is as follows: ++ less than 50 nM and + greater than 50 nM.

BTK = BTK (Homo sapiens (Human), UniProt Q06187); experiment: Z'-LYTE kinase inhibition assay against BTK; assay type: biochemical; settings: for inhibition at 0.1 µM: compound at 100 nM, ATP concentration at Km; for IC50: series of concentrations, GraphPad Prism 5
BTK, sequence (Q06187 whole entry): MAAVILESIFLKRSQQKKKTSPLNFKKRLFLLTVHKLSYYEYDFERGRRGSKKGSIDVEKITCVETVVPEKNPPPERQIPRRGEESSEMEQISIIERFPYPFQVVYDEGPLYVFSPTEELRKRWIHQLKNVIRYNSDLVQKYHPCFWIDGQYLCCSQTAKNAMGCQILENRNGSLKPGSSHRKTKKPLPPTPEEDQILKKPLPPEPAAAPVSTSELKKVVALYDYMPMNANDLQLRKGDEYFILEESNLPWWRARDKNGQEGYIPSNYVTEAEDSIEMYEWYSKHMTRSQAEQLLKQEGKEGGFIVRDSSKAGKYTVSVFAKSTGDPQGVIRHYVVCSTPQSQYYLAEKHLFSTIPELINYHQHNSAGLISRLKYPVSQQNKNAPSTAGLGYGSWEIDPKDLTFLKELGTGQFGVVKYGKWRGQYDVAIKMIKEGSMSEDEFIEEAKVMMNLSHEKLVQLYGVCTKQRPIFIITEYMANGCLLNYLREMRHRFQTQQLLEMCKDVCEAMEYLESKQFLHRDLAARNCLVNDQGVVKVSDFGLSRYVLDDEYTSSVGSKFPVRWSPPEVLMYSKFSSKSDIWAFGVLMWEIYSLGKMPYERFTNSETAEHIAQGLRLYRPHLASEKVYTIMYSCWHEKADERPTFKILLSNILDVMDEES
Outline: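 Z′-LYTE FRET readout: 1.04-10.4 ng BTK with 2 μM Tyr 01 peptide, ATP at Km, in 50 mM HEPES pH 7.5, 10 mM MgCl2, 1 mM EGTA, 0.01% BRIJ-35, 1% DMSO. 60 min kinase reaction at room temperature, then 60 min development; IC50 from 10-point, 3-fold titrations.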

EGFR (ErbB1) L858R/T790M = EGFR (ErbB1) L858R/T790M (Homo sapiens (Human), UniProt P00533, L858R/T790M); experiment: Z'-LYTE kinase inhibition assay against EGFR L858R/T790M; assay type: biochemical; settings: compound at 100 nM; ATP concentration at Km
Description: (§1) Inhibitory activities of compounds against BTK, EGFR T790M, EGFR L858R, and EGFR L858R/T790M were measured using Z′-LYTE® Method from Life Technologies as briefly described in the following.
(§2) Test Compounds are screened in 1% DMSO (final) in the well. For 10 point titrations, 3-fold serial dilutions are conducted from the starting concentration. All ATP Solutions are diluted to a 4× working concentration in Kinase Buffer (50 mM HEPES pH 7.5, 0.01% BRIJ-35, 10 mM MgCl2, 1 mM EGTA). Peptide/Kinase Mixtures are diluted to a 2× working concentration in the appropriate Kinase Buffers as described below. • (i) Peptide/Kinase Mixtures for measurement of EGFR (ErbB1) L858R: • The 2×EGFR (ErbB1) L858R/Tyr 04 mixture is prepared in 50 mM HEPES pH 7.5, 0.01% BRIJ-35, 10 mM MgCl2, 4 mM MnCl2. 1 mM EGTA, 2 mM DTT. The final 10 μL Kinase Reaction consists of 0.2-1.68 ng EGFR (ErbB1) L858R and 2 μM Tyr 04 in 50 mM HEPES pH 7.5, 0.01% BRIJ-35, 10 mM MgCl2, 2 mM MnCl2, 1 mM EGTA, 1 mM DTT. After the 1 hour Kinase Reaction incubation, 5 μL of a 1:64 dilution of Development Reagent B is added. • (ii) Peptide/Kinase Mixtures for measurement of EGFR (ErbB1) T790M: The 2×EGFR (ErbB1) T790M/Tyr 04 mixture is prepared in 50 mM HEPES pH 6.5, 0.01% BRIJ-35, 10 mM MgCl2, 1 mM EGTA, 0.02% NaN3. The final 10 μL Kinase Reaction consists of 3.9-30.2 ng EGFR (ErbB1) T790M and 2 μM Tyr 04 in 50 mM HEPES pH 7.0, 0.01% BRIJ-35, 10 mM MgCl2, 1 mM EGTA, 0.01% NaN3. After the 1 hour Kinase Reaction incubation, 5 μL of a 1:64 dilution of Development Reagent B is added. • (iii) Peptide/Kinase Mixtures for measurement of EGFR (ErbB1) L858R/T790M: The 2×EGFR (ErbB1) T790M L858R/Tyr 04 mixture is prepared in 50 mM HEPES pH 6.5, 0.01% BRIJ-35, 10 mM MgCl2, 1 mM EGTA, 0.02% NaN3. The final 10 μL Kinase Reaction consists of 0.38-4.22 ng EGFR (ErbB1) T790M L858R and 2 μM Tyr 04 in 50 mM HEPES pH 7.0, 0.01% BRIJ-35, 10 mM MgCl2, 1 mM EGTA, 0.01% NaN3. After the 1 hour Kinase Reaction incubation, 5 μL of a 1:64 dilution of Development Reagent B is added. • (iv) Peptide/Kinase Mixtures for measurement of BTK: The 2×BTK/Tyr 01 mixture is prepared in 50 mM HEPES pH 7.5, 0.010/BRIJ-35, 10 mM MgCl2, 1 mM EGTA. The final 10 μL Kinase Reaction consists of 1.04-10.4 ng BTK and 2 μM Tyr 01 in 50 mM HEPES pH 7.5, 0.01% BRIJ-35, 10 mM MgCl2, 1 mM EGTA. After the 1 hour Kinase Reaction incubation, 5 μL of a 1:256 dilution of Development Reagent B is added.
(§3) Reaction starts by 30-second shaking of mixture consisting of 2.5 μL 4× test compound, 5 μL 2× kinase reaction mixture and 2.5 μL 4×ATP Solution on Bar-coded Corning, low volume NBS, black 384-well plate (Corning Cat. #3676). Then the mixture is incubated for 60-minute at room temperature for the kinase reaction, followed by addition of 5 μL of a 1:1024 dilution of development reagent A and 30-second plate shake. The mixture is then incubated for another 60-minute at room temperature for development reaction. Finally fluorescence is read by plate reader.
(§4) The Z′-LYTE assay was carried out with ATP concentration at Km. The scale utilized in Tables 2-6 is as follows: ++ more than 50% inhibition and + less than 50% inhibition.

EGFR (ErbB1) L858R = EGFR (ErbB1) L858R (Homo sapiens (Human), UniProt P00533, L858R); experiment: Z'-LYTE kinase inhibition assay against EGFR L858R; assay type: biochemical; settings: compound at 100 nM; ATP concentration at Km
EGFR (ErbB1) L858R, sequence (P00533 25-1210 L858R): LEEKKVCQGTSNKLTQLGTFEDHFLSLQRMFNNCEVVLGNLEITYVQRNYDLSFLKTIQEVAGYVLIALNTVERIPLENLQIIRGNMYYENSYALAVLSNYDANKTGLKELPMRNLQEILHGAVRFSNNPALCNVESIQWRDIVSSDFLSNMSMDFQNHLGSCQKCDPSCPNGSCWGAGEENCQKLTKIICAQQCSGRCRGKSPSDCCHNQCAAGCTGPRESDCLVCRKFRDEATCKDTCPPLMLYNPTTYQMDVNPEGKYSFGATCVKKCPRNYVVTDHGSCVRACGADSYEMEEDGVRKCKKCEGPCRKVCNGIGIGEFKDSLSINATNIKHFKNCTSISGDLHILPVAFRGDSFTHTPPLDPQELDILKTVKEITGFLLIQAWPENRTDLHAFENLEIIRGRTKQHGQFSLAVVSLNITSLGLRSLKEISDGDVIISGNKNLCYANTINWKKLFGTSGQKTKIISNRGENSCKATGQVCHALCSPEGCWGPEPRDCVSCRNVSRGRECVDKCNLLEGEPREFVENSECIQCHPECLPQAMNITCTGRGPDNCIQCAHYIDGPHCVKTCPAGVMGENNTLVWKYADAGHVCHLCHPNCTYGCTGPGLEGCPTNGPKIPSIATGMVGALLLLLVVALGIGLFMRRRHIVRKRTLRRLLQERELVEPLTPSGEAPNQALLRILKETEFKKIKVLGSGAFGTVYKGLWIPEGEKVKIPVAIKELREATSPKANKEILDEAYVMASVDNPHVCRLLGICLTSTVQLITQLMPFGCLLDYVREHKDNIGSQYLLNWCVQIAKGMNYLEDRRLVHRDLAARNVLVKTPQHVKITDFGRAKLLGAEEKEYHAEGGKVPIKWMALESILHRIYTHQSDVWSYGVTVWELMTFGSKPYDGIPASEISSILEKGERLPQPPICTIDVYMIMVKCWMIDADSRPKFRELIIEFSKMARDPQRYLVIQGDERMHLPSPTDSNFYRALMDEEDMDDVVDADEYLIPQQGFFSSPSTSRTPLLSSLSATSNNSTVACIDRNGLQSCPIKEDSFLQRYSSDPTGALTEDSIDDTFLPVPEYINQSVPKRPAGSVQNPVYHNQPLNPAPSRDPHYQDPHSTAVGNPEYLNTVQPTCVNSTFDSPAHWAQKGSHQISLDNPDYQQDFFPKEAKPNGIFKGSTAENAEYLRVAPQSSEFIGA
Description: as §1, §2, §3, §4

EGFR (ErbB1) T790M = EGFR (ErbB1) T790M (Homo sapiens (Human), UniProt P00533, T790M); experiment: Z'-LYTE kinase inhibition assay against EGFR T790M; assay type: biochemical; settings: compound at 100 nM; ATP concentration at Km
EGFR (ErbB1) T790M, sequence (P00533 25-1210 T790M): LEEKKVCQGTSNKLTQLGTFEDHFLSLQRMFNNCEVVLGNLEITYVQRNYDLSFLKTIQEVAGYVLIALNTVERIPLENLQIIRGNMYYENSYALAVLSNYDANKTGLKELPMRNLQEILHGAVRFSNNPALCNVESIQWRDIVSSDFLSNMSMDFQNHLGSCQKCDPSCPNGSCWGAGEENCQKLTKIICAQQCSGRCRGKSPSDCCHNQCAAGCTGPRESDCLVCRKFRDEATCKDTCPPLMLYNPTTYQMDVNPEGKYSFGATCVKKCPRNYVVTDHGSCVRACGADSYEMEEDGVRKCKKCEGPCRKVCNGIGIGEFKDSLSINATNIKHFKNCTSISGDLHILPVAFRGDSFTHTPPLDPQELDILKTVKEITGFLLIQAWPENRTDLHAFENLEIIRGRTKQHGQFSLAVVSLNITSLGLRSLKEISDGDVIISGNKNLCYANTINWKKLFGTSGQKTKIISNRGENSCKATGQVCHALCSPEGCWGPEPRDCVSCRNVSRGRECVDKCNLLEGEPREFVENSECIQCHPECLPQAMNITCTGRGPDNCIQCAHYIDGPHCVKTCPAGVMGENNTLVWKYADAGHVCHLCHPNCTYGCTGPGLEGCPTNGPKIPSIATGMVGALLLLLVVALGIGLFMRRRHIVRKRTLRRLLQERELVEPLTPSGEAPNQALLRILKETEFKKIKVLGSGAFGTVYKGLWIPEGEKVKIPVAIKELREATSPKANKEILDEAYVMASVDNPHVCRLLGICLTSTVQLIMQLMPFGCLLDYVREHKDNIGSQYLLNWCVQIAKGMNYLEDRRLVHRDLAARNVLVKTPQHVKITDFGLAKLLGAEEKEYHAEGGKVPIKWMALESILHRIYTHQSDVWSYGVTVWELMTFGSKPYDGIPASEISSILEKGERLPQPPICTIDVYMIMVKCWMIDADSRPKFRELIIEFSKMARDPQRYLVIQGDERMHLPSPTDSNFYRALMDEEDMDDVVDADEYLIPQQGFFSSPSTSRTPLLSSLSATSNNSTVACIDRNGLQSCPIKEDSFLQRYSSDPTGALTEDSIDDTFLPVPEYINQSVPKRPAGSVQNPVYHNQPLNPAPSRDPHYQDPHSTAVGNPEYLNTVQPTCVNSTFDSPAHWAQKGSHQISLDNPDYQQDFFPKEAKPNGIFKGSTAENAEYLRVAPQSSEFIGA
Description: as §1, §2, §3, §4

EGFR del746_750 = EGFR del746_750 (Homo sapiens (Human), UniProt P00533, DEL746-750); experiment: SelectScreen Lantha method (Eu-anti-GST antibody/tracer) for EGFR del746_750; assay type: binding; settings: compound at 100 nM; read-out: % Inhibition against EGFR del745_750
EGFR del746_750, sequence (P00533 other isoform, or with tags, fused parts or gaps del E746-A750): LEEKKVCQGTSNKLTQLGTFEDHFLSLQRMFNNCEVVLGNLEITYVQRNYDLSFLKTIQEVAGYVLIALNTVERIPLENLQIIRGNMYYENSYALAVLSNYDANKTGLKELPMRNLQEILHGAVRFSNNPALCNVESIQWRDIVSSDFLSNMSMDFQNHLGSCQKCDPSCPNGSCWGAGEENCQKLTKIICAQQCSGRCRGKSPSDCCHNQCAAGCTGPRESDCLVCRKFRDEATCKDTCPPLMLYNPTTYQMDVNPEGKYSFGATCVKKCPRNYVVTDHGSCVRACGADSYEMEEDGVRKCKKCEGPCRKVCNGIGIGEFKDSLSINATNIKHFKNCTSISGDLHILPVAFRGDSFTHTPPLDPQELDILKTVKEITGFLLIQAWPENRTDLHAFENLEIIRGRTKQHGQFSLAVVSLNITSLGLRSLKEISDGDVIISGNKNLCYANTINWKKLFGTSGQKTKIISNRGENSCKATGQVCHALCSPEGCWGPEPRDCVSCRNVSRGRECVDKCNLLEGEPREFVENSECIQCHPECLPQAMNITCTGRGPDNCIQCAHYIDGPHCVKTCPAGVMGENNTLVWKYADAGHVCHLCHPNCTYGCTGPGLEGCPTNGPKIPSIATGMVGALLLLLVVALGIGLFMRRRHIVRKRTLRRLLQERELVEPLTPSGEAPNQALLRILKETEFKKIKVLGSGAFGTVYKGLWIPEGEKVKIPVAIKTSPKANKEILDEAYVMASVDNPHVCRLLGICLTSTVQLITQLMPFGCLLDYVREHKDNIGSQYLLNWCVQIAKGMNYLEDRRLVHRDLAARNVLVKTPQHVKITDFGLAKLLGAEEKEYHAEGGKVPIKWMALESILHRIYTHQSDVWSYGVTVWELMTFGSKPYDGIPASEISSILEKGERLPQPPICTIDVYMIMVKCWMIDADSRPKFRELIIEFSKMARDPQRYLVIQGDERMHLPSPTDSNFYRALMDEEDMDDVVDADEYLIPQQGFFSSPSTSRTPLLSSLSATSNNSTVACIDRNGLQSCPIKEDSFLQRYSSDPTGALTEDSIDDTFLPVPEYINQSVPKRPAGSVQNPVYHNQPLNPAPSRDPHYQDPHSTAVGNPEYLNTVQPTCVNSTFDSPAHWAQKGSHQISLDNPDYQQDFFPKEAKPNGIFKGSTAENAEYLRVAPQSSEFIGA
Description: SelecteScreen's Lantha® method from Life Technologies was used to measure compound's activities in inhibition of EGFR del746_750.
Test Compounds are screened in 1% DMSO (final) in the well. For 10 point titrations, 3-fold serial dilutions are conducted from the starting concentration. • Components for EGFR del745_750: • Kinase Buffer A: 50 mM HEPES pH 7.5, 0.01% BRIJ-35, 10 mM MgCl2, 1 mM EGTA • Kinase/Antibody Mixtures for EGFR del745_ 750: EGFR del745_ 750 10 nM, Antibody: Eu-anti-GST 2 nM, Tracer 199 10 nM, Inhibitor: SB202190 88.2 nM, All Kinase/Antibody Mixtures are diluted to a 2× working concentration in the appropriate Kinase Buffer • Tracer: The 4× AlexaFluor® labeled Tracer is prepared in Kinase Buffer.
To start the measurement, the following components are added to individual wells of bar-coded, low volume, white 384-well plate (Greiner Cat. #784207): • 1. 160 nL—100× Test Compound in 100% DMSO. • 2. 3.84 μL—Kinase Buffer: • 3. 8.0 μL—2× Kinase/Antibody Mixture • 4. 4.0 μL—4× Tracer The mixture above is then shaken for 30-second following by 60-minute incubation at room temperature. Finally the plate is read on fluorescence plate reader.
as §4

| SMILES | IC50 (OCI-Ly10 cells) [nM] | inhibition at 0.1 µM (BTK) [%] | IC50 (BTK) [nM] | inhibition at 0.1 µM (EGFR (ErbB1) L858R/T790M) [%] | inhibition at 0.1 µM (EGFR (ErbB1) L858R) [%] | inhibition at 0.1 µM (EGFR (ErbB1) T790M) [%] | inhibition at 0.1 µM (EGFR del746_750) [%] |
| --- | --- | --- | --- | --- | --- | --- | --- |
| C=CC(=O)Nc1cccc(-c2cc(-c3ccc(C(=O)Nc4ccccn4)cc3Cl)cc3cncnc23)c1 [C052, 4-(8-(3-acrylamidophenyl)quinazolin-6-yl)-3-chloro-N-(pyridin-2-yl)benzamide] | < 50 | > 50 | < 100 | < 50 | < 50 | < 50 | < 50 |
| C=CC(=O)Nc1cccc(-c2cc(-c3ccc(C(=O)Nc4ccccn4)cc3)cc3cncnc23)c1 [C008, 4-(8-(3-acrylamidophenyl)quinazolin-6-yl)-N-(pyridin-2-yl)benzamide] | < 50 | > 50 | < 100 | < 50 | < 50 | < 50 | < 50 |
